Test results published in patent US20190105367A1, “ANTIMICROBIAL 4-OXOQUINOLIZINES” (Emergent Product Development Gaithersburg Inc., priority 2011, published 2019).
Converted amounts (≈) assume the structure as drawn. Where two headings read alike, the source gives them in different places.

Legend:
A. baumannii NCTC 13301 [1] = assay: MIC without and with sub-inhibitory polymyxin B (Example 4); assay type: cell-based, Acinetobacter baumannii
A. baumannii A472 [2] = assay: Preliminary MBC without and with sub-inhibitory polymyxin B (Example 4); assay type: cell-based, Acinetobacter baumannii; details: Acinetobacter baumannii, A472, read-out: MBC +[…] PB, A. baumannii A472; +[…] polymyxin B; preliminary MBC; 1st experiment
A. baumannii A387 [3] = assay: as above; assay type: cell-based, Acinetobacter baumannii; details: Acinetobacter baumannii, A387, read-out: MBC +0.06 μg/ml PB, A. baumannii A387, +0.06 μg/ml polymyxin B, 1st experiment
A. baumannii ATCC 19606 [4] = assay: MIC without and with sub-inhibitory polymyxin B (Example 4); assay type: cell-based, Acinetobacter baumannii; details: for MIC without PB/MIC + PB: A. baumannii ATCC 19606; for MIC: Acinetobacter baumannii
A. baumannii J2 [5] = assay: as above; assay type: cell-based, Acinetobacter baumannii; details: for MIC without PB/MIC + PB: A. baumannii J2
A. baumannii A14 [6] = assay: as above; assay type: cell-based, Acinetobacter baumannii; details: 1st experiment
[7] = system: Acinetobacter sp. (H064200250); assay: Preliminary MBC without and with sub-inhibitory polymyxin B (Example 4); assay type: cell-based; details: Acinetobacter
Method in brief: (§1)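 After plating, cultures are held at 37° C for 18-20 hours; the endpoint is then scored by comparing colony growth against the positive control, with MBC defined as the lowest concentration showing roughly 90% reduction.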

A. baumannii J2 [8] = assay: as above; assay type: cell-based, Acinetobacter baumannii; details: Acinetobacter baumannii, J2, read-out: MBC +[…] PB, A. baumannii J2; +[…] polymyxin B; preliminary MBC; 1st experiment
A. baumannii A401 [9] = assay: as above; assay type: cell-based, Acinetobacter baumannii; details: Acinetobacter baumannii
A. baumannii A472 [10] = assay: MIC without and with sub-inhibitory polymyxin B (Example 4); assay type: cell-based, Acinetobacter baumannii; details: 1st experiment
[11] = system: strains of A. baumannii and one strain of Acinetobacter sp.; assay: MIC with sub-inhibitory concentrations (0.25x MIC) of polymyxin B, panel of Acinetobacter strains (Example 4); assay type: cell-based
A. baumannii NCTC 13301 [12] = assay: MIC without and with sub-inhibitory polymyxin B (Example 4); assay type: cell-based, Acinetobacter baumannii; details: A. baumannii NCTC 13301; +[…] PB; 2nd experiment
A. baumannii ATCC 19606 [13] = assay: Preliminary MBC without and with sub-inhibitory polymyxin B (Example 4); assay type: cell-based, Acinetobacter baumannii; details: Acinetobacter baumannii
A. baumannii A489 = assay: MIC without and with sub-inhibitory polymyxin B (Example 4); assay type: cell-based, Acinetobacter baumannii; details: for MIC without PB/MIC + PB: A. baumannii A489; for MIC: Acinetobacter baumannii
A. baumannii A387 [14] = assay: as above; assay type: cell-based, Acinetobacter baumannii
A. baumannii A390 [15] = assay: as above; assay type: cell-based, Acinetobacter baumannii; details: +0.06 μg/ml PB, 2nd experiment
[16] = system: Acinetobacter sp. (H064200250); assay: as above; assay type: cell-based; details: for MIC: Acinetobacter
A. baumannii A473 [17] = assay: Preliminary MBC without and with sub-inhibitory polymyxin B (Example 4); assay type: cell-based, Acinetobacter baumannii; details: Acinetobacter baumannii, A473, A. baumannii A473, +0.06 μg/ml PB, 2nd experiment, read-out: MBC
Method in brief: as §1

A. baumannii A14 [18] = assay: as above; assay type: cell-based, Acinetobacter baumannii; details: 2nd experiment
Method in brief: as §1

A. baumannii A390 [19] = assay: as above; assay type: cell-based, Acinetobacter baumannii; details: Acinetobacter baumannii, A390, A. baumannii A390, +0.06 μg/ml PB, 2nd experiment, read-out: MBC
Method in brief: as §1

A. baumannii NCTC 13301 [20] = assay: as above; assay type: cell-based, Acinetobacter baumannii; details: Acinetobacter baumannii, NCTC13301, read-out: MBC +[…] PB
Method in brief: as §1

A. baumannii A401 [21] = assay: MIC without and with sub-inhibitory polymyxin B (Example 4); assay type: cell-based, Acinetobacter baumannii; details: for MIC: Acinetobacter baumannii
A. baumannii A329 = assay: Preliminary MBC without and with sub-inhibitory polymyxin B (Example 4); assay type: cell-based, Acinetobacter baumannii; details: Acinetobacter baumannii, A329, A. baumannii A329, +0.06 μg/ml PB, 2nd experiment, read-out: MBC
A. baumannii A473 [22] = assay: MIC without and with sub-inhibitory polymyxin B (Example 4); assay type: cell-based, Acinetobacter baumannii; details: +0.06 μg/ml PB, 2nd experiment

With Cc1c(-c2ccc(CN)cc2)ccn2c(=O)c(C(=O)O)cc(C3CC3)c12 [Compound 5, 8-(4-aminomethyl-phenyl)-1-cyclopropyl-9-methyl-4-oxo-quinolizine-3-carboxylic acid] the “MIC without PB/MIC + PB” value (A. baumannii NCTC 13301 [1]; A. baumannii NCTC 13301, ratio, PB […], 1st experiment) was 16, the MIC (A. baumannii NCTC 13301 [1]; Acinetobacter baumannii, NCTC13301, read-out: MIC +[…] PB) was 1 µg/mL (≈ 2.87 µM) and the MBC (A. baumannii A472 [2]) was 1 µg/mL (≈ 2.87 µM). For the same compound, the MBC (A. baumannii A387 [3]) was 0.25 µg/mL, the “MIC without PB/MIC + PB” value (A. baumannii ATCC 19606 [4]; +0.06 μg/ml PB, 2nd experiment) was 8 and the “MIC without PB/MIC + PB” value (A. baumannii ATCC 19606 [4]; ratio, PB 0.06 μg/ml, 1st experiment) was 4. For the same compound, the MIC (A. baumannii ATCC 19606 [4]; ATCC19606, A. baumannii ATCC 19606, +0.06 μg/ml PB, 2nd experiment, read-out: MIC) was 0.06 µg/mL (≈ 0.172 µM), the MIC (A. baumannii ATCC 19606 [4]; ATCC19606, read-out: MIC +0.06 μg/ml PB, A. baumannii ATCC 19606, +0.06 μg/ml polymyxin B, 1st experiment) was 0.06 µg/mL and the “MIC without PB/MIC + PB” value (A. baumannii J2 [5]; +[…] PB, 2nd experiment) was 8. The “MIC without PB/MIC + PB” value (A. baumannii J2 [5]; ratio, PB […], 1st experiment) was 16, the MIC (A. baumannii J2 [5]; Acinetobacter baumannii, J2, read-out: MIC +[…] PB, A. baumannii J2, +[…] polymyxin B, 1st experiment) was 0.5 µg/mL (≈ 1.44 µM) and the “MIC +0.06 μg/ml PB” value (A. baumannii A14 [6]; +0.06 μg/ml polymyxin B) was 4 µg/mL. The “MIC without PB/MIC + PB” value (A. baumannii A14 [6]; ratio, PB 0.06 μg/ml) was 8, the MBC [7] was 4 µg/mL (≈ 11.5 µM) and the MBC ([7]; read-out: MBC +[…] PB, Acinetobacter spp. H064200250, +[…] polymyxin B, preliminary MBC, 1st experiment) was 1 µg/mL (≈ 2.87 µM). It also gave an MBC (A. baumannii J2 [8]) of 0.5 µg/mL (≈ 1.44 µM), an MBC (A. baumannii A401 [9]; A401, A baumannii A 401, +0.06 μg/ml PB, 2nd experiment, read-out: MBC) of 4 µg/mL (≈ 11.5 µM) and an MBC (A. baumannii A401 [9]; A401, read-out: MBC +0.06 μg/ml PB, A baumannii A 401, +0.06 μg/ml polymyxin B, 1st experiment) of 2 µg/mL. For the same compound, the “MIC without PB/MIC + PB” value (A. baumannii A472 [10]; A. baumannii A472, ratio, PB […]) was 8, the MIC (A. baumannii A472 [10]; Acinetobacter baumannii, A472, read-out: MIC +[…] PB, A. baumannii A472, +[…] polymyxin B) was 1 µg/mL (≈ 2.87 µM) and the “Range ratios MIC without PB/MIC with PB Oct. 1, 2008 n = 8” value ([11]; 1st experiment) was 8-16. The “MIC range with PB (0.25x MIC) Oct. 1, 2008 n = 8” value ([11]; 1st experiment, […] polymyxin B, ATCC 19606, A329, A390 and A473 not taken) was 0.25 to 4 µg/mL, the “Range ratios MIC without PB/MIC with PB Oct. 14, 2008 n = 11” value ([11]; 2nd experiment) was 4-32 and the “MIC range with PB (0.25x MIC) Oct. 14, 2008 n = 11” value ([11]; 2nd experiment, 0.06 μg/ml polymyxin B, all strains except the ATCC strain) was 0.25 to 8 µg/mL. The “MIC without PB/MIC + PB” value (A. baumannii NCTC 13301 [12]) was 8, the MBC (A. baumannii ATCC 19606 [13]; ATCC19606, A. baumannii ATCC 19606, +0.06 μg/ml PB, 2nd experiment, read-out: MBC) was 0.06 µg/mL (≈ 0.172 µM) and the MBC (A. baumannii ATCC 19606 [13]; ATCC19606, read-out: MBC +0.06 μg/ml PB, A. baumannii ATCC 19606, +0.06 μg/ml polymyxin B, 1st experiment) was 0.06 µg/mL. For the same compound, the “MIC without PB/MIC + PB” value (A. baumannii A489; +[…] PB, 2nd experiment) was 16, the “MIC without PB/MIC + PB” value (A. baumannii A489; ratio, PB […], 1st experiment) was 8 and the MIC (A. baumannii A489; A489, A. baumannii A489, +[…] PB, 2nd experiment, read-out: MIC) was 0.5 µg/mL (≈ 1.44 µM). For the same compound, the MIC (A. baumannii A489; A489, read-out: MIC +[…] PB, A. baumannii A489, +[…] polymyxin B, 1st experiment) was 0.5 µg/mL (≈ 1.44 µM), the “MIC without PB/MIC + PB” value (A. baumannii A387 [14]; A. baumannii A387, +0.06 μg/ml PB, 2nd experiment) was 4 and the “MIC +0.06 μg/ml PB” value (A. baumannii A387 [14]; A. baumannii A387, +0.06 μg/ml polymyxin B, 1st experiment) was 0.25 µg/mL. The “MIC without PB/MIC + PB” value (A. baumannii A387 [14]; A. baumannii A387, ratio, PB 0.06 μg/ml, 1st experiment) was 8, the MIC (A. baumannii A387 [14]; Acinetobacter baumannii, A387, A. baumannii A387, +0.06 μg/ml PB, 2nd experiment, read-out: MIC) was 1 µg/mL (≈ 2.87 µM) and the “MIC without PB/MIC + PB” value (A. baumannii A390 [15]; A. baumannii A390) was 4. For the same compound, the MIC (A. baumannii A390 [15]; Acinetobacter baumannii, A390, A. baumannii A390, read-out: MIC) was 2 µg/mL (≈ 5.74 µM), the MIC [16] was 4 µg/mL (≈ 11.5 µM) and the “MIC without PB/MIC + PB” value ([16]; Acinetobacter spp. H064200250 (OXA51), +[…] PB, 2nd experiment) was 4. The “MIC without PB/MIC + PB” value ([16]; Acinetobacter spp. H064200250, ratio, PB […], 1st experiment) was 16, the MIC ([16]; read-out: MIC +[…] PB, Acinetobacter spp. H064200250, +[…] polymyxin B, 1st experiment) was 1 µg/mL (≈ 2.87 µM) and the MBC (A. baumannii A473 [17]) was 1 µg/mL (≈ 2.87 µM). For the same compound, the MBC (A. baumannii A14 [18]; A. baumannii A14, +0.06 μg/ml PB) was 4 µg/mL (≈ 11.5 µM), the MBC (A. baumannii A14 [18]; Acinetobacter baumannii, A14, A. baumannii A14, without PB, read-out: MBC) was 16 µg/mL (≈ 45.9 µM) and the MBC (A. baumannii A390 [19]) was 2 µg/mL (≈ 5.74 µM). The MBC (A. baumannii NCTC 13301 [20]) was 1 µg/mL (≈ 2.87 µM), the “MIC without PB/MIC + PB” value (A. baumannii A401 [21]; A baumannii A 401, ratio, PB 0.06 μg/ml, 1st experiment) was 8 and the MIC (A. baumannii A401 [21]; A401, A baumannii A 401, +0.06 μg/ml PB, 2nd experiment, read-out: MIC) was 4 µg/mL (≈ 11.5 µM). For the same compound, the MIC (A. baumannii A401 [21]; A401, read-out: MIC +0.06 μg/ml PB, A baumannii A 401, +0.06 μg/ml polymyxin B, 1st experiment) was 2 µg/mL, the MBC (A. baumannii A329) was 8 µg/mL (≈ 23 µM) and the “MIC without PB/MIC + PB” value (A. baumannii A473 [22]; A. baumannii A473) was 8. For the same compound, the MIC (A. baumannii A473 [22]; Acinetobacter baumannii, A473, A. baumannii A473, read-out: MIC) was 1 µg/mL (≈ 2.87 µM).
